Results reported in patent CN102066974A, “用于蛋白、肽和其他分子的f-18标记的改进方法和组合物” (Immunomedics Inc, priority 2008, dated 2011).
“And” between values parts separate entries of the source, which are not always exact repeats. Equal values may be shown once. Numbered stars: 1 amine (or outer) side, 2 acyl side, 3 side chain; on linkers, the order of the positions; unused ones are H or OH. Square brackets hold non-standard residues; d marks the D form. Side chains are listed from the residue outwards. Peptide text beside a SMILES is read from it. * marks the point of attachment. NOTA(2S-Bn(4-NHCS)) = O=C(O)CN1CCN(CC(=O)O)C[C@H](Cc2ccc(NC(=S)*)cc2)N(CC(=O)O)CC1; X1 = O=C(O)CN1CCN(CC(=O)O)CC(Cc2ccc(NC(=S)*)cc2)N(CC(=O)O)CC1; DOTA = O=C(O)CN1CCN(CC(=O)O)CCN(CC(=O)*)CCN(CC(=O)O)CC1; DTPA = O=C(O)CN(CCN(CC(=O)O)CC(=O)O)CCN(CC(=O)O)CC(=O)*; NH(2-(imidazol-4-yl)ethyl) = c1ncc(CCN*)[nH]1; NOTA = O=C(O)CN1CCN(CC(=O)O)CCN(CC(=O)*)CC1; X2 = N[C@H](CC(=O)*)c1ccccc1Br; Suc = O=C(CCC(=O)[*:2])[*:1]; Dap = NC[C@H](N)C(=O)O; Aoc = NCCCCCCCC(=O)O

Legend:
LS174T肿瘤 [1] = assay: TF2-pretargeted biodistribution in BALB/c nude mice with s.c. LS174T tumours (Example 27)
LS174T肿瘤 [2] = assay: PET/CT image quantification (region of interest ratios); conditions: mouse, in vivo
AR42J肿瘤 = assay: Biodistribution in BALB/c nude mice with s.c. AR42J tumours; type: in vivo, mouse; conditions: 2 h p.i.
LS174 T异种移植物 = assay: Biodistribution of 111In-IMP 449 and [Al18F]IMP 449 with or without TF2 in nude mice with sc LS174T xenografts; type: in vivo, mouse; conditions: 1 h after peptide
[3] = Stability of Al18F-peptide complex in water (peptide labelling screen); type: physicochemical
PC-3细胞 = type: binding; conditions: first experiment, inhibitor 56 to 0.44 nM
[4] = Biodistribution of unbound 18F fraction and purified [Al18F]IMP 449 in SCID mice, no pretargeting; type: in vivo, mouse; conditions: 1 h p.i., no bsMAb
CaPan1异种移植物 = assay: TF10-pretargeted biodistribution in nude mice with CaPan1 xenografts; type: in vivo, mouse; conditions: 1 h after peptide, TF10 (162μg) pretargeted 18 h before
[5] = Stability of labelled peptide in human serum at 37℃, HPLC; type: in vitro ADME; conditions: for activity still attached to peptide: crude 18F labelling mixture (35% bound at start), pooled human serum 37℃; for 18F-labelled peptide stable in serum: purified 18F-labelled peptide
RIIα二聚体 = RIIα二聚体 (Homo sapiens, UniProt P13861); conditions: Stokka et al. 2006; cited from earlier work
H1和H2组胺受体 = assay: In vitro study on cell lines bearing H1 and H2 histamine receptors; type: cell-based
[6] = in vivo

Sequence of RIIα二聚体 (P13861 whole entry): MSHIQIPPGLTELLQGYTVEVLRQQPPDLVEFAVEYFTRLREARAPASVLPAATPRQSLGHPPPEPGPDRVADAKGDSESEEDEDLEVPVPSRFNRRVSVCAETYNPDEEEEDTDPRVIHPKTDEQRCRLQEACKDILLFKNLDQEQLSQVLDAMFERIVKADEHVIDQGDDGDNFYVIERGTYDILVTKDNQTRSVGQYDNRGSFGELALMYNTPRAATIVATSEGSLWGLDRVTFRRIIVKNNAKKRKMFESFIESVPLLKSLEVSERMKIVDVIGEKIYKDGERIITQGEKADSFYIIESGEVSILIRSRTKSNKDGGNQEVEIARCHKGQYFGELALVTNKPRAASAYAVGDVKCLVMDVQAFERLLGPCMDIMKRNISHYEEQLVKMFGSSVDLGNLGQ

Compound: NC(=O)[C@@H](CCCCNC(=O)CNC(=O)CCC(=O)NCCc1c[nH]cn1)NC(=O)[C@@H](CCC(=O)O)NC(=O)[C@@H](CCCCNC(=O)CNC(=O)CCC(=O)NCCc1c[nH]cn1)NC(=O)[C@@H](Cc1ccc(O)cc1)NC(=O)CN1CCN(CC(=O)O)CCN(CC(=O)O)CCN(CC(=O)O)CC1 [68Ga-IMP 288, metal not drawn] ({DOTA}-[dY][dK]([Gly-Suc-NH(2-(imidazol-4-yl)ethyl)])[dE][dK]([Gly-Suc-NH(2-(imidazol-4-yl)ethyl)])-NH2)
- LS174T tumour uptake without TF2 pretargeting (LS174T肿瘤 [1]; 1 h p.i.): 0.20±0.03 %ID/g
- inflamed muscle-blood ratio (LS174T肿瘤 [1]; mouse, in vivo): 5.9±2.9
- tumour-inflamed muscle ratio (LS174T肿瘤 [1]; mouse, in vivo): 12.5±2.1
- inflamed muscle-background ratio in PET image (LS174T肿瘤 [2]): 8.9
- tumour-inflamed tissue ratio in PET image (LS174T肿瘤 [2]): 5.4

Compound: C[C@@H](O)[C@@H]1NC(=O)[C@H](CCCCN)NC(=O)[C@@H](Cc2c[nH]c3ccccc23)NC(=O)[C@H](Cc2ccccc2)NC(=O)[C@@H](NC(=O)[C@@H](Cc2ccccc2)NC(=O)CN2CCN(CC(=O)O)CCN(CC(=O)O)CC2)CSSC[C@@H](C(=O)N[C@H](CO)[C@@H](C)O)NC1=O [68Ga-IMP 466, metal not drawn]
- AR42J tumour uptake (AR42J肿瘤): 29.2±0.5 %ID/g
- kidney retention (AR42J肿瘤): 16.2±2.86 %ID/g
- lung uptake (AR42J肿瘤): 4.0±0.9 %ID/g

Compound: NC(=O)[C@@H](CCCCNC(=O)CNC(=O)CCC(=O)NCCc1c[nH]cn1)NC(=O)[C@@H](CCC(=O)O)NC(=O)[C@@H](CCCCNC(=O)CNC(=O)CCC(=O)NCCc1c[nH]cn1)NC(=O)[C@@H](Cc1ccc(O)cc1)NC(=O)CN1CCN(CC(=O)O)CCN(CC(=O)O)CCN(CC(=O)O)CC1 [111In-IMP 288, metal not drawn] ({DOTA}-[dY][dK]([Gly-Suc-NH(2-(imidazol-4-yl)ethyl)])[dE][dK]([Gly-Suc-NH(2-(imidazol-4-yl)ethyl)])-NH2)
- kidney uptake (LS174T肿瘤 [1]; 0.1 nmol peptide, independent of bsMAb dose): 2 %ID/g

Compound: C[C@@H](NC(=S)Nc1ccc(CC2CN(CC(=O)O)CCN(CC(=O)O)CCN2CC(=O)O)cc1)C(=O)N[C@H](CCCCNC(=O)CNC(=O)CCC(=O)NCCc1c[nH]cn1)C(=O)N[C@H](Cc1ccc(O)cc1)C(=O)N[C@H](CCCCNC(=O)CNC(=O)CCC(=O)NCCc1c[nH]cn1)C(N)=O (stereo partly drawn) [111In-IMP 449, metal not drawn] (X1-[dA][dK]([Gly-Suc-NH(2-(imidazol-4-yl)ethyl)])[dY][dK]([Gly-Suc-NH(2-(imidazol-4-yl)ethyl)])-NH2)
- 大肠 (large intestine) uptake, individual animals (LS174 T异种移植物; no pretargeting antibody): 0.253 %ID/g
- 大肠 (large intestine) uptake, mean (LS174 T异种移植物; no pretargeting antibody): 0.237 %ID/g
- 胃 (stomach) uptake, individual animals (LS174 T异种移植物; no pretargeting antibody): 0.329 %ID/g
- 脑 (brain) uptake, individual animals (LS174 T异种移植物; no pretargeting antibody): 0.197 %ID/g

Compound: C[C@@H](O)[C@@H]1NC(=O)[C@H](CCCCN)NC(=O)[C@@H](Cc2c[nH]c3ccccc23)NC(=O)[C@H](Cc2ccccc2)NC(=O)[C@@H](NC(=O)[C@@H](Cc2ccccc2)NC(=O)CN2CCN(CC(=O)O)CCN(CC(=O)O)CC2)CSSC[C@@H](C(=O)N[C@H](CO)[C@@H](C)O)NC1=O [Al18F-IMP 466]
- AR42J tumour uptake (AR42J肿瘤): 28.3±5.7 %ID/g
- blood level (AR42J肿瘤): 0.10±0.07 %ID/g
- bone uptake (AR42J肿瘤): 0.33±0.07 %ID/g
- kidney retention (AR42J肿瘤): 9.96±1.27 %ID/g
- lung uptake (AR42J肿瘤): 1.9±0.4 %ID/g
- tumour-blood ratio (AR42J肿瘤): 299±88
- AR42J tumour uptake with excess unlabelled IMP 466 (AR42J肿瘤; receptor blocking): 8.6±0.7 %ID/g

Compound: C[C@@H](NC(=O)[C@H](CNC(=O)C[C@@H](N)c1ccccc1Br)NC(=O)CN(CCN(CCN(CC(=O)O)CC(=O)O)CC(=O)O)CC(=O)O)C(=O)N[C@H](CCCCNC(=O)CNC(=O)CCC(=O)NCCc1c[nH]cn1)C(=O)N[C@H](C)C(=O)N[C@H](CCCCNC(=O)CNC(=O)CCC(=O)NCCc1c[nH]cn1)C(N)=O [IMP 375, DTPA-Dpr(2-Br-Phe-CHNH2-CH2-CO-)-D-Ala-D-Lys(HSG)-D-Ala-D-Lys(HSG)-NH2] ({DTPA}-[Dap](X2)[dA][dK]([Gly-Suc-NH(2-(imidazol-4-yl)ethyl)])[dA][dK]([Gly-Suc-NH(2-(imidazol-4-yl)ethyl)])-NH2)
- stability of Al18F complex relative to IMP 272 [3]: 显著更稳定

Compound: CSCC[C@H](NC(=O)[C@H](CC(C)C)NC(=O)[C@H](Cc1c[nH]cn1)NC(=O)CNC(=O)[C@@H](NC(=O)[C@H](C)NC(=O)[C@H](Cc1c[nH]c2ccccc12)NC(=O)[C@@H](NC(=O)[C@H](Cc1c[nH]c2ccccc12)NC(=O)[C@H](CCC(N)=O)NC(=O)CCCCCCCNC(=O)CN1CCN(CC(=O)O)CCN(CC(=O)O)CC1)C(C)C)C(C)C)C(N)=O [IMP 468] ({NOTA-Aoc}-QWVWAVGHLM-NH2)
- blocking of 125I-BBN binding (PC-3细胞): 阻断125I-BBN的结合

Compound: C[C@@H](NC(=S)Nc1ccc(C[C@H]2CN(CC(=O)O)CCN(CC(=O)O)CCN2CC(=O)O)cc1)C(=O)N[C@H](CCCCNC(=O)CNC(=O)CCC(=O)NCCc1c[nH]cn1)C(=O)N[C@H](Cc1ccc(O)cc1)C(=O)N[C@H](CCCCNC(=O)CNC(=O)CCC(=O)NCCc1c[nH]cn1)C(N)=O [[Al18F]IMP 449] ({NOTA(2S-Bn(4-NHCS))}-[dA][dK]([Gly-Suc-NH(2-(imidazol-4-yl)ethyl)])[dY][dK]([Gly-Suc-NH(2-(imidazol-4-yl)ethyl)])-NH2)
- 大肠 (large intestine) uptake, individual animals [4]: 0.167 %ID/g and 0.091 %ID/g and 0.094 %ID/g and 0.109 %ID/g
- 大肠 (large intestine) uptake, mean [4]: 0.115 %ID/g
- 小肠 (small intestine) uptake, individual animals [4]: 1.124 %ID/g and 1.247 %ID/g and 1.166 %ID/g and 1.624 %ID/g
- 小肠 (small intestine) uptake, mean [4]: 1.290 %ID/g
- 肌肉 (muscle) uptake, individual animals [4]: 0.077 %ID/g and 0.075 %ID/g
- 脊骨 (spine) uptake, individual animals [4]: 0.268 %ID/g
- CaPan1 tumour uptake (CaPan1异种移植物): 4.6±0.9 %ID/g
- 小肠 (small intestine) uptake, individual animals (LS174 T异种移植物; TF2 163.2μg 16 h before): 0.185 %ID/g
- 肌肉 (muscle) uptake, individual animals (LS174 T异种移植物; TF2 163.2μg 16 h before): 0.064 %ID/g
- 肝 (liver) uptake, individual animals (LS174 T异种移植物; TF2 163.2μg 16 h before): 0.196 %ID/g and 0.180 %ID/g
- 肝 (liver) uptake, mean (LS174 T异种移植物; TF2 163.2μg 16 h before): 0.172 %ID/g
- 股骨 (femur) uptake, mean (LS174 T异种移植物; TF2 163.2μg 16 h before): 0.625 %ID/g
- 肺 (lung) uptake, individual animals (LS174 T异种移植物; TF2 163.2μg 16 h before): 0.474 %ID/g and 0.230 %ID/g
- 胃 (stomach) uptake, mean (LS174 T异种移植物; TF2 163.2μg 16 h before): 0.218 %ID/g
- 脾 (spleen) uptake, individual animals (LS174 T异种移植物; TF2 163.2μg 16 h before): 0.239 %ID/g and 0.118 %ID/g and 0.140 %ID/g
- 大肠 (large intestine) uptake, individual animals (LS174 T异种移植物; no pretargeting antibody): 0.118 %ID/g
- 大肠 (large intestine) uptake, mean (LS174 T异种移植物; no pretargeting antibody): 0.072 %ID/g
- 肝 (liver) uptake, individual animals (LS174 T异种移植物; no pretargeting antibody): 0.141 %ID/g (2×) and 0.200 %ID/g and 0.185 %ID/g
- 股骨 (femur) uptake, individual animals (LS174 T异种移植物; no pretargeting antibody): 0.080 %ID/g
- 股骨 (femur) uptake, mean (LS174 T异种移植物; no pretargeting antibody): 0.100 %ID/g
- 脑 (brain) uptake, individual animals (LS174 T异种移植物; no pretargeting antibody): 0.077 %ID/g
- 脾 (spleen) uptake, mean (LS174 T异种移植物; no pretargeting antibody): 0.118 %ID/g
- LS174T tumour uptake (LS174T肿瘤 [1]; 6.0 nmol TF2 16 h before, 0.25 nmol peptide): 10.6±1.7 %ID/g
- bone uptake (LS174T肿瘤 [1]; mouse, in vivo): 0.54±0.2 %ID/g

Compound: C-NETA-琥珀酰-D-Lys(HSG)-D-Tyr-D-Lys(HSG)-NH2 [IMP 467]
- decomposition of 18F-labelled peptide in serum ([5]; HLB-purified, human serum 37℃, 5 h): 没有可检测的分解

Compound: DLIEEAASRIVDAVIEQVKAAGAY [Ht-31]
- PKA isoform preference (RIIα二聚体): 对PKA的RII同种型更大的亲和力

Compound: DOTA-D-Tyr-D-Lys(HSG)-D-Glu-D-Lys(HSG)-NH2 [IMP 288]
- antagonist or agonist activity at histamine receptors (H1和H2组胺受体): 没有拮抗或激动活性
- histamine-related pharmacological activity in animals [6]: 没有与组胺组分相关的肽的药理活性

Compound: DTPA-Dpr(DTPA)-D-Ala-D-Lys(HSG)-D-Ala-D-Lys(HSG)-NH2 [IMP 333]
- blocking of 125I-BBN binding (PC-3细胞): 不能

Compound: FEELAWKIAKMIWSDVFQQC [PV-38]
- PKA isoform preference (RIIα二聚体): 对RI更大的亲和力

Compound: LEQYANQLADQIIKEATE [RIAD]
- PKA isoform preference (RIIα二聚体): 对RI更大的亲和力

Compound: NOTA-ITC苄基-D-Ala-D-Lys(HSG)-D-Tyr-D-Lys(HSG)-NH2 [IMP 449]
- activity still attached to peptide ([5]; 15 min): 9.8 %
- activity still attached to peptide ([5]; 1 h): 7.6 %
- decomposition of metal-18F-peptide complex ([5]; prepared with ascorbic acid as stabiliser, serum 37℃, 4 h): 没有可检测的分解
- 18F-labelled peptide stable in serum ([5]; human serum 37℃, at least 1 h): 91 %
- 18F-labelled peptide stable in serum ([5]; human serum 37℃, at least 4 h): 76 %
